The text below walks through data of patent US20210165001A1, “COMPOSITIONS AND METHODS FOR DETECTION AND IMAGING OF AMYLOID FIBRILS, AMYLOID PLAQUES, RNA, AND NUCLEOLI” (The University of Hong Kong, priority 2018, published 2021).

What all share (assay type): biochemical
The target of experiment [1] is T1, insulin amyloid fibrillation (Homo sapiens, UniProt P01308). Nature of the experiment: effect of L-ascorbic acid on insulin amyloid fibrillation, complex 1-Pt luminescence assay. The conditions noted are these: for kapp of insulin amyloid fibrillation / tlag of insulin amyloid fibrillation: detected by complex 1-Pt. As to the method: (§1) In kinetics, insulin amyloid fibrillation can be modeled by a sigmoid function with three different phases: lag phase, log phase, and stationary phase. The values of kapp and tlag for insulin amyloid fibrillation were determined using the sigmoid function which was based on the equation shown below (see similar examples of data fitting in Nielsen et al., Biochemistry, 40:6036-6046 (2001); Hwang et al., J. Biol. Chem., 285:41701-41711 (2010); and Donabedian et al., ACS Chem. Neurosci., 6:1526-1535 (2015)).
(§2) where y is the absorbance, emission intensity, or RLS intensity; A1 is the absorbance, emission intensity, or RLS intensity before amyloid fibrillation; A2 is the absorbance, emission intensity, or RLS intensity after amyloid fibrillation; x is the incubation time; xo is the incubation time at which the absorbance, emission intensity, or RLS intensity is at half maximum; and dx is the time constant. Accordingly, the apparent rate constant, kapp, is equivalent to 1/dx, and the lag time, tlag, is given by xo−2dx.
(§3) Insulin was dissolved at 1.0 mg mL^−1 in an acidic buffer ([NaCl]=137 mM, [KCl]=2.7 mM, pH=2.0) in the presence of different amounts (0, 10, 20, 50, 70, 100 mM) of L-ascorbic acid. The solution was incubated at 65° C. and stirred at 300 rpm. Aliquots were withdrawn at a desired time interval. Insulin samples (10 μM) with different incubation times were added to a solution of thioflavin T (10 μM) in a PBS buffer (10.0 mM, pH=7.4). The emission spectra were recorded at 25° C. at an excitation wavelength of 440 nm. Similarly, insulin samples (10 μM) with different incubation times were added to a solution of complex 1-Pt (50 μM) in a PBS buffer (10.0 mM, pH=7.4, 10% DMSO). The emission spectra were recorded at 25° C. at an excitation wavelength of 400 nm. The values of kapp and tlag for insulin amyloid fibrillation were determined from fitting using the sigmoid equation listed above.

Experiment [2] concerns the target T1, insulin amyloid fibrillation. In words: effect of L-ascorbic acid on insulin amyloid fibrillation, thioflavin T fluorescence assay. Particulars: detected by thioflavin T. The method, then: as §1, §2, §3
Experiment [3] shares this target. Nature of the experiment: kinetics of insulin amyloid fibrillation reported by probe (sigmoid fit). The conditions noted are these: method: Emission; insulin 10 μM; thioflavin T 10 μM (490 nm) or complex 1-Pt 50 μM (650 nm); no L-ascorbic acid. As to the method:
To induce amyloid fibrillation, insulin was dissolved at 1.0 mg mL^−1 in an acidic buffer ([NaCl]=137 mM, [KCl]=2.7 mM, pH=2.0). The solution was incubated at 65° C. and stirred at 300 rpm. Insulin samples with different incubation times were added to a solution of thioflavin T in a PBS buffer (10.0 mM, pH=7.4). The final concentrations of insulin and thioflavin T were both 10 μM. The emission spectra were recorded at 25° C. at an excitation wavelength of 440 nm. Similarly, insulin samples with different incubation times were added to a solution of complex 1-Pt in a PBS buffer (10.0 mM, pH=7.4, 10% DMSO). The final concentrations of insulin and complex 1-Pt were 10 μM and 50 μM, respectively. UV-Vis absorption spectra, emission spectra, and RLS spectra were recorded at 25° C.; the emission spectra were recorded at an excitation wavelength of 400 nm.
In kinetics, insulin amyloid fibrillation can be modeled by a sigmoid function with three different phases: lag phase, log phase, and stationary phase. The values of kapp and tlag for insulin amyloid fibrillation were determined using the sigmoid function which was based on the equation shown below (see similar examples of data fitting in Nielsen et al., Biochemistry, 40:6036-6046 (2001); Hwang et al., J. Biol. Chem., 285:41701-41711 (2010); and Donabedian et al., ACS Chem. Neurosci., 6:1526-1535 (2015)). […]

T1 sequence (P01308 25-54 limits assumed): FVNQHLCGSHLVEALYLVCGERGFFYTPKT
T1 sequence (P01308 90-110 limits assumed): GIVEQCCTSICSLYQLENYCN

As for `O=C1O[C@H]([C@@H](O)CO)C(O)=C1O` [L-ascorbic acid], the “inhibition effect on amyloid fibrillation” value in experiment [1] (L-ascorbic acid 0-100 mM, thioflavin T and complex 1-Pt assays) was “concentration dependent”. Besides, the “kapp of insulin amyloid fibrillation” value in experiment [1] (L-ascorbic acid 10 mM) was determined as 0.18 ± 0.09 min⁻¹; in experiment [1] (L-ascorbic acid 20 mM), 0.16 ± 0.08 min⁻¹; in experiment [1] (L-ascorbic acid 50 mM), 0.15 ± 0.07 min⁻¹; in experiment [1] (L-ascorbic acid 70 mM) it was 0.12 ± 0.06 min⁻¹; in experiment [2] (L-ascorbic acid 10 mM), 0.19 ± 0.09 min⁻¹; in experiment [2] (L-ascorbic acid 20 mM) it was 0.17 ± 0.08 min⁻¹. The “kapp of insulin amyloid fibrillation” value in experiment [2] (L-ascorbic acid 50 mM) came to 0.17 ± 0.08 min⁻¹; in experiment [2] (L-ascorbic acid 70 mM) it was 0.14 ± 0.07 min⁻¹. Besides, the “tlag of insulin amyloid fibrillation” value in experiment [1] (L-ascorbic acid 10 mM) is recorded as 53.2 ± 0.2 min; in experiment [1] (L-ascorbic acid 20 mM) it was 59.2 ± 0.3 min; in experiment [1] (L-ascorbic acid 50 mM) it was 70.1 ± 0.6 min; in experiment [1] (L-ascorbic acid 70 mM), 85.6 ± 0.6 min; in experiment [2] (L-ascorbic acid 10 mM) it was 54.3 ± 0.2 min; in experiment [2] (L-ascorbic acid 20 mM), 57.2 ± 0.3 min. The “tlag of insulin amyloid fibrillation” value in experiment [2] (L-ascorbic acid 50 mM) was determined as 68.3 ± 0.3 min; in experiment [2] (L-ascorbic acid 70 mM) it was 83.0 ± 0.3 min.
On to `Cc1ccc2c(c1)sc(-c1ccc(N(C)C)cc1)[n+]2C.[Cl-]` [Thioflavin T, thioflavin T], for which, in experiment [3], the “kapp (apparent rate constant of insulin amyloid fibrillation)” value came to 0.23 ± 0.08 min⁻¹ and the “tlag (lag time of insulin amyloid fibrillation)” value is listed as 54.0 ± 0.1 min.
